{
  "source": "patent US20060121082A1",
  "about": "“Method to enhance drug release from a drug-releasing material” (priority 2004, published 2006)",
  "test": "microbiological proof of ciprofloxacin bioactivity after manufacturing and during in vitro drug release tests",
  "conditions": "microbiologically proved",
  "data": [
    {"compound": "O=C(O)c1cn(C2CC2)c2cc(N3CCNCC3)c(F)cc2c1=O", "note": "[Ciprofloxacin, ciprofloxacin]", "values": [
      {"measurement": "bioactivity of ciprofloxacin after manufacturing and during the in vitro drug release tests", "setting": "Example 1, P(L/DL)LA composite", "result": "bioactive"},
      {"measurement": "bioactivity of ciprofloxacin after manufacturing and during the in vitro drug release tests", "setting": "Example 2, PLGA composite", "result": "bioactive"}
    ]}
  ]
}
